Measurements published in patent US20080096811A1, “[…] VPAC2 RECEPTOR PEPTIDE AGONISTS” (Eli Lilly and Company, published 2008).
*1 amine or outer side, *2 acyl side, *3 side chain or, on linkers, in order; H or OH if unused. Where a SMILES comes first, the peptide text is derived from it. Where no end group is shown, it is not given here. Side-chain parts run from the residue outwards. The star is where a group is joined. γGlu = O=C(O)[C@H](CCC(=O)[*:2])N[*:1]; Palmitoyl = CCCCCCCCCCCCCCCC(=O)*; Hexanoyl = CCCCCC(=O)*; Propionyl = CCC(=O)*

B1: P95 (peptide)
peptide: Propionyl-HSDAVFTDNYTRLRKQVAAKKYLQSIKNSRTSPPPK([γGlu-Palmitoyl])-NH2
SMILES: CCCCCCCCCCCCCCCC(=O)N[C@@H](CCC(=O)NCCCC[C@H](NC(=O)[C@@H]1CCCN1C(=O)[C@@H]1CCCN1C(=O)[C@@H]1CCCN1C(=O)[C@H](CO)NC(=O)[C@@H](NC(=O)[C@H](CCCNC(=N)N)NC(=O)[C@H](CO)NC(=O)[C@H](CC(N)=O)NC(=O)[C@H](CCCCN)NC(=O)[C@@H](NC(=O)[C@H](CO)NC(=O)[C@H](CCC(N)=O)NC(=O)[C@H](CC(C)C)NC(=O)[C@H](Cc1ccc(O)cc1)NC(=O)[C@H](CCCCN)NC(=O)[C@H](CCCCN)NC(=O)[C@H](C)NC(=O)[C@H](C)NC(=O)[C@@H](NC(=O)[C@H](CCC(N)=O)NC(=O)[C@H](CCCCN)NC(=O)[C@H](CCCNC(=N)N)NC(=O)[C@H](CC(C)C)NC(=O)[C@H](CCCNC(=N)N)NC(=O)[C@@H](NC(=O)[C@H](Cc1ccc(O)cc1)NC(=O)[C@H](CC(N)=O)NC(=O)[C@H](CC(=O)O)NC(=O)[C@@H](NC(=O)[C@H](Cc1ccccc1)NC(=O)[C@@H](NC(=O)[C@H](C)NC(=O)[C@H](CC(=O)O)NC(=O)[C@H](CO)NC(=O)[C@H](Cc1c[nH]cn1)NC(=O)CC)C(C)C)[C@@H](C)O)[C@@H](C)O)C(C)C)[C@@H](C)CC)[C@@H](C)O)C(N)=O)C(=O)O

Tests used:
human VPAC2 [1] = molecular target: T1, human VPAC2 (Homo sapiens, UniProt P41587); assay: Alpha screen cAMP in vitro potency, human VPAC2; assay type: cell-based
T1 construct: expressed in transfected cells
T1 sequence (P41587 24-438): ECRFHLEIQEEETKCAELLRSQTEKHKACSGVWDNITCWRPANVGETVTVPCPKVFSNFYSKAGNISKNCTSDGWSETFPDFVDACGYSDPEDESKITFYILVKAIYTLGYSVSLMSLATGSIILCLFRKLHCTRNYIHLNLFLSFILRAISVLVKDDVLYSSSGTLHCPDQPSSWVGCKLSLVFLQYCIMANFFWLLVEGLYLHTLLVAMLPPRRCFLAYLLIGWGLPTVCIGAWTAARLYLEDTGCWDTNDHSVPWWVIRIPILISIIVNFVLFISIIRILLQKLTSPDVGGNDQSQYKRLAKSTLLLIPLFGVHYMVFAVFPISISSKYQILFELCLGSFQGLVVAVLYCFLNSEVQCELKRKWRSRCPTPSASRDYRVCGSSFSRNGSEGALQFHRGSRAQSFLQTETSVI
Protocol: Alpha screen: Cells are washed in the culture flask once with PBS. Then, the cells are rinsed with enzyme free dissociation buffer. The dissociated cells are removed. The cells are then spun down and washed in stimulation buffer. For each data point, 50,000 cells suspended in stimulation buffer are used. To this buffer, Alpha screen acceptor beads are added along with the stimuli. This mixture is incubated for 60 minutes. Lysis buffer and Alpha screen donor beads are added and are incubated for 60 to 120 minutes. The Alpha screen signal (indicative of intracellular cAMP levels) is read in a suitable instrument (e.g. AlphaQuest from Perlin-Elmer). Steps including Alpha screen donor and acceptor beads are performed in reduced light.

human VPAC2 [2] = molecular target: T1, human VPAC2; assay: Filter binding assay, human VPAC2 membranes, 125I-labeled VIP tracer
Protocol: (§1) For this assay, the solutions and equipment include:
(§2) Presoak solution: 0.5% Polyethyleneamine in Aqua dest.
(§3) Buffer for flushing filter plates: 25 mM […] pH 7.4
(§4) Blocking buffer: 25 mM HEPES pH 7.4; 0.2% protease free BSA
(§5) Assay buffer: 25 mM HEPES pH 7.4; 0.5% protease free BSA
(§6) Dilution and assay plate: PS-Microplate, U form
(§7) Filtration Plate Multiscreen FB Opaque Plate; […] Type B Glasfiber filter
(§8) In order to prepare the filter plates, aspirate the presoak solution by vacuum filtration. Flush the plates twice with 200 μL flush buffer. Add 200 μL blocking buffer to the filter plate. The filter plate is then incubated […] for 1 hour at room temperature.
(§9) Fill the assay plate with 25 μL assay buffer, 25 μL membranes (2.5 μg) suspended in assay buffer, 25 μL compound (agonist) in assay buffer, and 25 μL tracer (about 40000 cpm) in assay buffer. Incubate the filled plate for 1 hour with shaking.
(§10) Conduct the transfer from assay plate to filter plate. Aspirate the blocking buffer by vacuum filtration and wash two times with flush buffer. Transfer 90 μL from the assay plate to the filter plate. Aspirate the 90 μL transferred from assay plate and wash three times with 200 μL flush buffer. Remove the plastic support. Dry for 1 hour at 60° C. Add 30 μL Microscint. Perform the count.

human PAC1 = human PAC1 (Homo sapiens, UniProt P41586); assay: biochemical
Chain of human PAC1 (P41586 21-468): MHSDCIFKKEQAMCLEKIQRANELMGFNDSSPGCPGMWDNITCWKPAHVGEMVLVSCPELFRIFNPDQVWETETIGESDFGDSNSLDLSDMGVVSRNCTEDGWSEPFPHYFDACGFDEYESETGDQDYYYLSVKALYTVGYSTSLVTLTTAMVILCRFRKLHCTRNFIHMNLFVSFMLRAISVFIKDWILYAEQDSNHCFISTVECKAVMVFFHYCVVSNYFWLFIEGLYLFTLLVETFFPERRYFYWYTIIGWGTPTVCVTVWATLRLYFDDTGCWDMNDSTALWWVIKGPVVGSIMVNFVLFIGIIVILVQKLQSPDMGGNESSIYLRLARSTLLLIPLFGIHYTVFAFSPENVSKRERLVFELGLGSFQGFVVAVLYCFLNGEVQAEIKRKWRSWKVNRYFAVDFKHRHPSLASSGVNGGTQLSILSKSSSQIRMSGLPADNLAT
Protocol: as §1, §2, §3, §4, §5, §6, §7, §8, §9, §10

human VPAC1 = molecular target: T2, human VPAC1 (Homo sapiens, UniProt P32241); assay: Filter binding assay, human VPAC1 membranes, 125I-labeled VIP tracer; parameters: expressed in transfected cells
T2 sequence (P32241 31-457): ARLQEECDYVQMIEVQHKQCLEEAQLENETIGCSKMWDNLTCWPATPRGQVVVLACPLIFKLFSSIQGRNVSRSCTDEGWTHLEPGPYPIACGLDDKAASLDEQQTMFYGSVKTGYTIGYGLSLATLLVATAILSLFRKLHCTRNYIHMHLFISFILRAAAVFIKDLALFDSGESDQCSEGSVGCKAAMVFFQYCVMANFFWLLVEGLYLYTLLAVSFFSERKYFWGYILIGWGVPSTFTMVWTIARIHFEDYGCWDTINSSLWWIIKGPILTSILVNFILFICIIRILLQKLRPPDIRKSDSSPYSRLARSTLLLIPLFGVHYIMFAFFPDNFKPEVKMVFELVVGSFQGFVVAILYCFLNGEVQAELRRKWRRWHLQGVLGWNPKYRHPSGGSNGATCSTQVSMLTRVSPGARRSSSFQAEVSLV
Protocol: as §1, §2, §3, §4, §5, §6, §7, §8, §9, §10

[3] = molecular target: T3, human VPAC2 receptor (human) (UniProt P41587)
T3 sequence: T1 sequence (P41587 24-438)

Molecule | EC50 (human VPAC2 [1]) [nM] | IC50 (human VPAC2 [2]) [nM] | IC50 (human PAC1) [nM] | IC50 (human VPAC1) [nM] | EC50 (nM) for cAMP generation, Alpha Screen [3] [nM] | EC50 (nM) for cAMP generation, DiscoveRx [3] [nM]
CC[C@H](C)[C@H](NC(=O)[C@H](CO)NC(=O)[C@H](CCC(N)=O)NC(=O)[C@H](CC(C)C)NC(=O)[C@H](Cc1ccc(O)cc1)NC(=O)[C@H](CCCCN)NC(=O)[C@H](CCCCN)NC(=O)[C@H](C)NC(=O)[C@H](C)NC(=O)[C@@H](NC(=O)[C@H](CCC(N)=O)NC(=O)[C@H](CCCCN)NC(=O)[C@H](CCCNC(=N)N)NC(=O)[C@H](CC(C)C)NC(=O)[C@H](CCCNC(=N)N)NC(=O)[C@@H](NC(=O)[C@H](Cc1ccc(O)cc1)NC(=O)[C@H](CC(N)=O)NC(=O)[C@H](CC(=O)O)NC(=O)[C@@H](NC(=O)[C@H](Cc1ccccc1)NC(=O)[C@@H](NC(=O)[C@H](C)NC(=O)[C@H](CC(=O)O)NC(=O)[C@H](CO)NC(=O)[C@@H](N)Cc1c[nH]cn1)C(C)C)[C@@H](C)O)[C@@H](C)O)C(C)C)C(=O)N[C@@H](CCCCN)C(=O)N[C@@H](CC(N)=O)C(=O)N[C@@H](CO)C(=O)N[C@@H](CCCNC(=N)N)C(=O)N[C@H](C(=O)N[C@@H](CO)C(=O)N1CCC[C@H]1C(=O)N1CCC[C@H]1C(=O)N1CCC[C@H]1C(=O)N[C@@H](CCCCNC(=O)[C@@H](N)Cc1c[nH]c2ccccc12)C(N)=O)[C@@H](C)O [Agonist P128] (H-HSDAVFTDNYTRLRKQVAAKKYLQSIKNSRTSPPPK(Trp)-NH2) | 1.78 | 2.25 | 104 | 110 | – | –
HSDAVFTDNYTRLRKAAAAKKYLQSIKNSRTSPPP-NH2 [Agonist P97] | 0.64 | 0.82 | 87.3 | 97.5 | – | –
CCCCCC(=O)N[C@@H](Cc1c[nH]cn1)C(=O)N[C@@H](CO)C(=O)N[C@@H](CC(=O)O)C(=O)N[C@@H](C)C(=O)N[C@H](C(=O)N[C@@H](Cc1ccccc1)C(=O)N[C@H](C(=O)N[C@@H](CC(=O)O)C(=O)N[C@@H](CC(N)=O)C(=O)N[C@@H](Cc1ccc(O)cc1)C(=O)N[C@H](C(=O)N[C@@H](CCCNC(=N)N)C(=O)N[C@@H](CC(C)C)C(=O)N[C@@H](CCCNC(=N)N)C(=O)N[C@@H](CCCCN)C(=O)N[C@@H](C)C(=O)N[C@@H](C)C(=O)N[C@@H](C)C(=O)N[C@@H](C)C(=O)N[C@@H](CCCCN)C(=O)N[C@@H](CCCCN)C(=O)N[C@@H](Cc1ccc(O)cc1)C(=O)N[C@@H](CC(C)C)C(=O)N[C@@H](CCC(N)=O)C(=O)N[C@@H](CO)C(=O)N[C@H](C(=O)N[C@@H](CCCCN)C(=O)N[C@@H](CC(N)=O)C(=O)N[C@@H](CO)C(=O)N[C@@H](CCCNC(=N)N)C(=O)N[C@H](C(=O)N[C@@H](CO)C(=O)N1CCC[C@H]1C(=O)N1CCC[C@H]1C(=O)N1CCC[C@H]1C(N)=O)[C@@H](C)O)[C@@H](C)CC)[C@@H](C)O)[C@@H](C)O)C(C)C [Agonist P178] (Hexanoyl-HSDAVFTDNYTRLRKAAAAKKYLQSIKNSRTSPPP-NH2) | 0.12 | 0.16 | – | 35.7 | – | –
CC[C@H](C)[C@H](NC(=O)[C@H](CO)NC(=O)[C@H](CC(N)=O)NC(=O)[C@H](CC(C)C)NC(=O)[C@H](Cc1ccc(O)cc1)NC(=O)[C@H](CCCCN)NC(=O)[C@H](CCCCN)NC(=O)[C@@H](NC(=O)[C@H](C)NC(=O)[C@H](CCSC)NC(=O)[C@H](CCC(N)=O)NC(=O)[C@H](CCCCN)NC(=O)[C@H](CCCN=C(N)N)NC(=O)[C@H](CC(C)C)NC(=O)[C@H](CCCN=C(N)N)NC(=O)[C@@H](NC(=O)[C@H](Cc1ccc(O)cc1)NC(=O)[C@H](CC(N)=O)NC(=O)[C@H](CC(=O)O)NC(=O)[C@@H](NC(=O)[C@H](Cc1ccccc1)NC(=O)[C@@H](NC(=O)[C@H](C)NC(=O)[C@H](CC(=O)O)NC(=O)[C@H](CO)NC(=O)[C@@H](N)Cc1cnc[nH]1)C(C)C)[C@@H](C)O)[C@@H](C)O)C(C)C)C(=O)N[C@@H](CC(C)C)C(=O)N[C@@H](CC(N)=O)C(=O)O [VIP, reference compound] | – | – | > 25000 | – | – | –
CCCCCC(=O)N[C@@H](Cc1c[nH]cn1)C(=O)N[C@@H](CO)C(=O)N[C@@H](CC(=O)O)C(=O)N[C@@H](C)C(=O)N[C@H](C(=O)N[C@@H](Cc1ccccc1)C(=O)N[C@H](C(=O)N[C@@H](CC(=O)O)C(=O)N[C@@H](CC(N)=O)C(=O)N[C@@H](Cc1ccc(O)cc1)C(=O)N[C@H](C(=O)N[C@@H](CCCNC(=N)N)C(=O)N[C@@H](CC(C)C)C(=O)N[C@@H](CCCNC(=N)N)C(=O)N[C@@H](CCCCN)C(=O)N[C@@H](CCC(N)=O)C(=O)N[C@H](C(=O)N[C@@H](C)C(=O)N[C@@H](C)C(=O)N[C@@H](CCCCN)C(=O)N[C@@H](CCCCN)C(=O)N[C@@H](Cc1ccc(O)cc1)C(=O)N[C@@H](CC(C)C)C(=O)N[C@@H](CCC(N)=O)C(=O)N[C@@H](CO)C(=O)N[C@H](C(=O)N[C@@H](CCCCN)C(=O)N[C@@H](CC(N)=O)C(=O)N[C@@H](CO)C(=O)N[C@@H](CCCNC(=N)N)C(=O)N[C@H](C(=O)N[C@@H](CO)C(=O)N1CCC[C@H]1C(=O)N1CCC[C@H]1C(=O)N1CCC[C@H]1C(=O)N[C@@H](CCCCNC(=O)[C@@H](N)Cc1c[nH]c2ccccc12)C(N)=O)[C@@H](C)O)[C@@H](C)CC)C(C)C)[C@@H](C)O)[C@@H](C)O)C(C)C [Agonist P118] (Hexanoyl-HSDAVFTDNYTRLRKQVAAKKYLQSIKNSRTSPPPK(Trp)-NH2) | – | 0.25 | 125 | 76.3 | – | –
B1 | – | – | – | – | 0.24 | 0.45
HSDAVFTDNYTRLRKQAAAKKYLQSIKNSRTSPPP-NH2 [P96] | – | – | – | – | 0.9 | –
